In the NIST ThermoML archive (doi:10.1021/je300775u):
“And” between values parts separate entries of the source, which are not always exact repeats. Equal values may be shown once. Numbers after ± are expanded uncertainties.

Experiments:
[1] = 101.3 kPa, Liquid; for speed of sound: Pulse-echo method; for mass density: Vibrating tube method
[2] = xn = mol fraction of the nth substance listed; conditions: 101 kPa, Liquid; for speed of sound: Pulse-echo method; for mass density: Vibrating tube method

ClCBr [bromochloromethane]
[1]
Conditions	mass density [kg/m3]	speed of sound [m/s]
293.15 K	1933.23 ± 1.1	1001.2 ± 1.2
298.15 K	1921.71 ± 1.1	986.1 ± 1.2
303.15 K	1910.15 ± 1.1	971 ± 1.2
308.15 K	1898.51 ± 1.1	955.9 ± 1.2
313.15 K	1886.82 ± 1.1	940.8 ± 1.2

ClC(Cl)(Cl)Br [bromotrichloromethane]
[1]
Conditions	mass density [kg/m3]	speed of sound [m/s]
293.15 K	2013.06 ± 1.2	917.1 ± 1.2
298.15 K	2002.14 ± 1.2	903.6 ± 1.2
303.15 K	1991.2 ± 1.2	890.2 ± 1.2
308.15 K	1980.24 ± 1.2	876.8 ± 1.2
313.15 K	1969.25 ± 1.2	863.6 ± 1.2

ClC(Cl)(Cl)Br [bromotrichloromethane] + ClCBr
[2], x1 = 1
Conditions	mass density [kg/m3]	speed of sound [m/s]
293.15 K	2013.06 ± 1.2	917.1 ± 1.2
298.15 K	2002.14 ± 1.2	903.6 ± 1.2
303.15 K	1991.2 ± 1.2	890.2 ± 1.2
308.15 K	1980.24 ± 1.2	876.8 ± 1.2
313.15 K	1969.25 ± 1.2	863.6 ± 1.2

BrCBr [dibromomethane]
[1]
Conditions	mass density [kg/m3]	speed of sound [m/s]
293.15 K	2491.67 ± 1.8	961.8 ± 1.2
298.15 K	2478.61 ± 1.8	949.2 ± 1.2
303.15 K	2465.53 ± 1.8	936.6 ± 1.2
308.15 K	2452.42 ± 1.8	924 ± 1.2
313.15 K	2439.26 ± 1.8	911.4 ± 1.2

BrCBr [dibromomethane] + ClC(Cl)(Cl)Br
[2], x2 = 0
Conditions	mass density [kg/m3]	speed of sound [m/s]
293.15 K	2491.67 ± 1.8	961.8 ± 1.2
298.15 K	2478.61 ± 1.8	949.2 ± 1.2
303.15 K	2465.53 ± 1.8	936.6 ± 1.2
308.15 K	2452.42 ± 1.8	924 ± 1.2
313.15 K	2439.26 ± 1.8	911.4 ± 1.2

CCCCCCC [heptane]
[1]
Conditions	mass density [kg/m3]	speed of sound
293.15 K	683.84 ± 0.18	1152.6 ± 0.9 m/s and 1152.2 ± 0.9 m/s
298.15 K	679.6 ± 0.18	1131 ± 0.9 m/s and 1130.9 ± 0.9 m/s
303.15 K	675.33 ± 0.18	1109.6 ± 0.9 m/s and 1109.1 ± 0.9 m/s
308.15 K	671.04 ± 0.18	1088.2 ± 0.9 m/s and 1088.1 ± 0.9 m/s
313.15 K	666.71 ± 0.18	1067.1 ± 0.9 m/s and 1066.9 ± 0.9 m/s

CCCCCCC [heptane] + BrCBr
[2], x2 = 0
Conditions	mass density [kg/m3]	speed of sound [m/s]
293.15 K	683.84 ± 0.18	1152.2 ± 0.9
298.15 K	679.6 ± 0.18	1130.9 ± 0.9
303.15 K	675.33 ± 0.18	1109.1 ± 0.9
308.15 K	671.04 ± 0.18	1088.1 ± 0.9
313.15 K	666.71 ± 0.18	1066.9 ± 0.9

CCCCCCC [heptane] + ClC(Cl)(Cl)Br
[2], x2 = 0
Conditions	mass density [kg/m3]	speed of sound [m/s]
293.15 K	683.84 ± 0.18	1152.6 ± 0.9
298.15 K	679.6 ± 0.18	1131 ± 0.9
303.15 K	675.33 ± 0.18	1109.6 ± 0.9
308.15 K	671.04 ± 0.18	1088.2 ± 0.9
313.15 K	666.71 ± 0.18	1067.1 ± 0.9
